Measurements published in patent US11345676B2, “Apoptosis signal-regulating kinase 1 (ASK 1) inhibitor compounds” (PHARMAKEA, INC., priority 2017, dated 2022).
Counter-ions that a name gives are not always drawn.

Target: ASK1 (Homo sapiens (Human), UniProt Q99683)
Assay: Human ASK1 ADP-Glo kinase assay
Type: biochemical
Details: recombinant ASK1 (amino acids 649-946), 50 μM ATP, MBP substrate
Method: Example B-1: Human ASK1 ADP-Glo Assay
The ability of test compounds to inhibit ASK1 kinase activity was determined using the luminescent ADP-Glo™ Kinase Assay and Myelin Basic Protein (MBP) as a substrate (Promega Corporation, Madison, Wis.). During the kinase reaction, ASK1 utilizes ATP and generates ADP. The remaining ATP is then depleted by addition of the ADP-Glo™ reagent which also terminates the reaction. Subsequent addition of the Kinase Detection Reagent converts the ADP that was produced during the kinase reaction to ATP, and this newly synthesized ATP is converted to light using the luciferase/luciferin reactions. The assay was performed according to the manufacturer's instructions. Briefly, purified, recombinant ASK1 (amino acids 649-946) (10-20 ng/well) was added to a 384-well, F bottom, small volume, HIbase, white plate (Greiner Bio-One, Monroe, N.C. #784075) containing 1-2 μL 5× test compound or vehicle control (diluted 1:20 from a 100% DMSO stock solution into 1× Reaction Buffer A). The enzyme was allowed to pre-incubate with test compound from 15-120 min at 30° C. before the addition of the ATP/substrate mix (final concentrations of 50 μM ATP+250 ng MBP in 1× Reaction Buffer A). The mixture was then incubated at room temperature for 40 min before the addition of ADP-Glo™ reagent and a second 40 minute room temperature incubation. Following the addition of the Kinase Detection Reagent, the plate was incubated for an additional 40 min at room temperature before reading luminescence on a FlexStation 3 (Molecular Devices, Sunnyvale, Calif.). Maximum activity was determined from wells treated with vehicle and was set to 100% and minimum activity was determined from wells containing no enzyme and this was set to 0%. Percent inhibition was calculated relative to the controls and the data graphed in Collaborative Drug Discovery (CDD) Vault (Burlingame, Calif.).

Sequence of ASK1 (Q99683 649-946): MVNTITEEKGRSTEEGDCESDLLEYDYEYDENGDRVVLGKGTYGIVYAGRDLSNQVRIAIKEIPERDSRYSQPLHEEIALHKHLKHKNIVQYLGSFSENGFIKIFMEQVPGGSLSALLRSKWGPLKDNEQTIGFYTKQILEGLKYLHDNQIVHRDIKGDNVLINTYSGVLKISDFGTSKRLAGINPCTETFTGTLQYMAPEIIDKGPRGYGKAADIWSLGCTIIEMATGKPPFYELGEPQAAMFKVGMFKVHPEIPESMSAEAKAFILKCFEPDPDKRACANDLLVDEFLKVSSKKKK

Question: How did the IC50 turn out when `CC(C)n1cnnc1-c1cccc(NC(=O)c2cccc(Oc3cc(C#N)cc(C(F)(F)F)n3)c2)n1` [Compound 1-23, 3-((4-Cyano-6-(trifluoromethyl)pyridin-2-yl)oxy)-N-(6-(4-isopropyl-4H-1,2,4-triazol-3-yl)pyridin-2-yl)benzamide] was run?
Answer: < 300 nM

Question: With `CC(C)n1cnnc1-c1cccc(NC(=O)c2cccc(Oc3cc(C(=O)O)cc(C(F)(F)F)n3)c2)n1` [Compound 1-24, 2-(3-((6-(4-Isopropyl-4H-1,2,4-triazol-3-yl)pyridin-2-yl)carbamoyl)phenoxy)-6-(trifluoromethyl)isonicotinic acid trifluoroacetate] as the compound, how does the IC50 read?
Answer: 300 to 1000 nM

Question: `CC(C)n1cnnc1-c1cccc(NC(=O)c2cccc(OCc3ccccc3)c2)n1` [Compound 1-179, 3-(Benzyloxy)-N-(6-(4-isopropyl-4H-1,2,4-triazol-3-yl)pyridin-2-yl)benzamide] was tested. Which IC50 did it give?
Answer: < 300 nM

Question: With `CC(C)n1cnnc1-c1cccc(NC(=O)c2cccc(OCc3cccnc3)c2)n1` [Compound 1-181, N-(6-(4-Isopropyl-4H-1,2,4-triazol-3-yl)pyridin-2-yl)-3-(pyridin-3-ylmethoxy)benzamide hydrochloride] as the compound, how does the IC50 read?
Answer: < 300 nM

Question: Which IC50 does the source give for `CC(C)n1cnnc1-c1cccc(NC(=O)c2cc(Oc3ccccn3)ccc2F)n1` [Compound 1-210, 2-Fluoro-N-(6-(4-isopropyl-4H-1,2,4-triazol-3-yl)pyridin-2-yl)-5-(pyridin-2-yloxy)benzamide hydrochloride] here?
Answer: < 300 nM

Question: How did the IC50 turn out when `CC(C)n1cnnc1-c1cccc(NC(=O)c2cc(Oc3cccnc3)ccc2F)n1` [Compound 1-211, 2-Fluoro-N-(6-(4-isopropyl-4H-1,2,4-triazol-3-yl)pyridin-2-yl)-5-(pyridin-3-yloxy)benzamide hydrochloride] was run?
Answer: < 300 nM

Question: `CC(C)n1cnnc1-c1cccc(NC(=O)c2cc(Oc3cccc(C4CC4)n3)ccc2F)n1` [Compound 1-213, 5-((6-Cyclopropylpyridin-2-yl)oxy)-2-fluoro-N-(6-(4-isopropyl-4H-1,2,4-triazol-3-yl)pyridin-2-yl)benzamide trifluoroacetate] was tested. Which IC50 did it give?
Answer: < 300 nM

Question: `CC(C)n1cnnc1-c1cccc(NC(=O)c2cc(Oc3ccncn3)ccc2F)n1` [Compound 1-217, 2-Fluoro-N-(6-(4-isopropyl-4H-1,2,4-triazol-3-yl)pyridin-2-yl)-5-(pyrimidin-4-yloxy)benzamide hydrochloride] was tested. Which IC50 did it give?
Answer: < 300 nM

Question: How did the IC50 turn out when `CC(C)n1cnnc1-c1cccc(NC(=O)c2cc(Oc3cccc(C(F)(F)F)n3)ccc2F)c1` [Compound 1-223, 2-Fluoro-N-(3-(4-isopropyl-4H-1,2,4-triazol-3-yl)phenyl)-5-((6-(trifluoromethyl)pyridin-2-yl)oxy)benzamide hydrochloride] was run?
Answer: < 300 nM

Question: For `CC(C)n1cnnc1-c1cccc(NC(=O)c2cc(Oc3cccc(N4CCCC4)n3)ccc2F)n1` [Compound 1-225, 2-Fluoro-N-(6-(4-isopropyl-4H-1,2,4-triazol-3-yl)pyridin-2-yl)-5-((6-(pyrrolidin-1-yl)pyridin-2-yl)oxy)benzamide hydrochloride], which IC50 is on record?
Answer: 300 to 1000 nM

Question: How did the IC50 turn out when `CC(C)n1cnnc1-c1cccc(NC(=O)c2cc(Oc3ccc(C4CC4)cn3)ccc2F)n1` [Compound 1-227, 5-((5-Cyclopropylpyridin-2-yl)oxy)-2-fluoro-N-(6-(4-isopropyl-4H-1,2,4-triazol-3-yl)pyridin-2-yl)benzamide hydrochloride] was run?
Answer: < 300 nM

Question: Which IC50 does the source give for `CC(C)n1cnnc1-c1cccc(NC(=O)c2cc(NC(=O)c3ccccc3)ccc2F)n1` [Compound 1-305, 5-Benzamido-2-fluoro-N-(6-(4-isopropyl-4H-1,2,4-triazol-3-yl)pyridin-2-yl) benzamide hydrochloride] here?
Answer: < 300 nM

Question: `CC(C)n1cnnc1-c1cccc(NC(=O)c2cc(NC(=O)c3ccccn3)ccc2F)n1` [Compound 1-307, N-(4-Fluoro-3-((6-(4-isopropyl-4H-1,2,4-triazol-3-yl)pyridin-2-yl)carbamoyl)phenyl)picolinamide hydrochloride] was tested. Which IC50 did it give?
Answer: < 300 nM

Question: How did the IC50 turn out when `CC(C)n1cnnc1-c1cccc(NC(=O)c2cc(NC(=O)c3cccnc3)ccc2F)n1` [Compound 1-308, N-(4-Fluoro-3-((6-(4-isopropyl-4H-1,2,4-triazol-3-yl)pyridin-2-yl)carbamoyl)phenyl)nicotinamide hydrochloride] was run?
Answer: < 300 nM

Question: Which IC50 does the source give for `CC(C)n1cnnc1-c1cccc(NC(=O)c2cc(NC(=O)c3ccncc3)ccc2F)n1` [Compound 1-309, N-(4-Fluoro-3-((6-(4-isopropyl-4H-1,2,4-triazol-3-yl)pyridin-2-yl)carbamoyl)phenyl)isonicotinamide dihydrochloride] here?
Answer: < 300 nM

Question: For `CC(C)n1cnnc1-c1cccc(NC(=O)c2cc(NC(=O)c3ccc(Br)cn3)ccc2F)n1` [Compound 1-311, 5-Bromo-N-(4-fluoro-3-((6-(4-isopropyl-4H-1,2,4-triazol-3-yl)pyridin-2-yl)carbamoyl)phenyl)picolinamide hydrochloride], which IC50 is on record?
Answer: < 300 nM

Question: For `CC(C)n1cnnc1-c1cccc(NC(=O)c2cc(NC(=O)c3cncnc3)ccc2F)n1` [Compound 1-313, N-(4-Fluoro-3-((6-(4-isopropyl-4H-1,2,4-triazol-3-yl)pyridin-2-yl)carbamoyl)phenyl)pyrimidine-5-carboxamide hydrochloride], which IC50 is on record?
Answer: < 300 nM

Question: For `CC(C)n1cnnc1-c1cccc(NC(=O)c2cc(NC(=O)c3ncccn3)ccc2F)n1` [Compound 1-314, N-(4-Fluoro-3-((6-(4-isopropyl-4H-1,2,4-triazol-3-yl)pyridin-2-yl)carbamoyl)phenyl)pyrimidine-2-carboxamide trifluoroacetate], which IC50 is on record?
Answer: < 300 nM

Question: For `CC(C)(C)OC(=O)NCc1cc(Oc2ccnc(C(=O)Nc3cccc(-c4nncn4C4CC4)n3)c2)nc(C(F)(F)F)c1` [Compound 1-329, tert-Butyl ((2-((2-((6-(4-cyclopropyl-4H-1,2,4-triazol-3-yl)pyridin-2-yl)carbamoyl)pyridin-4-yl)oxy)-6-(trifluoromethyl)pyridin-4-yl)methyl)carbamate], which IC50 is on record?
Answer: 300 to 1000 nM

Question: How did the IC50 turn out when `CC(C)n1cnnc1-c1cccc(NC(=O)c2cc(NC(=O)c3cc(CN)ccn3)ccc2F)n1` [Compound 1-332, 4-(Aminomethyl)-N-(4-fluoro-3-((6-(4-isopropyl-4H-1,2,4-triazol-3-yl)pyridin-2-yl)carbamoyl)phenyl)picolinamide hydrochloride] was run?
Answer: < 300 nM

Question: For `CC(C)n1cnnc1-c1cccc(NC(=O)c2cc(NC(=O)Cc3ccccc3)ccc2F)n1` [Compound 1-333, 2-Fluoro-N-(6-(4-isopropyl-4H-1,2,4-triazol-3-yl)pyridin-2-yl)-5-(2-phenylacetamido)benzamide trifluoroacetate], which IC50 is on record?
Answer: < 300 nM

Question: Which IC50 does the source give for `CC(C)n1cnnc1-c1cccc(NC(=O)c2cc(NC(=O)c3ccc(F)c(F)c3)ccc2F)n1` [Compound 1-334, 5-(3,4-Difluorobenzamido)-2-fluoro-N-(6-(4-isopropyl-4H-1,2,4-triazol-3-yl)pyridin-2-yl)benzamide hydrochloride] here?
Answer: < 300 nM

Question: `CC(C)n1cnnc1-c1cccc(NC(=O)c2cc(NC(=O)c3ccc(C(=O)O)cc3)ccc2F)n1` [Compound 1-335, 4-((4-Fluoro-3-((6-(4-isopropyl-4H-1,2,4-triazol-3-yl)pyridin-2-yl)carbamoyl)phenyl)carbamoyl)benzoic acid sodium salt] was tested. Which IC50 did it give?
Answer: < 300 nM

Question: With `CC(C)n1cnnc1-c1cccc(NC(=O)c2cc(Oc3cccc(Br)n3)ccc2F)n1` [Compound 1-336, 5-((6-Bromopyridin-2-yl)oxy)-2-fluoro-N-(6-(4-isopropyl-4H-1,2,4-triazol-3-yl)pyridin-2-yl)benzamide hydrochloride] as the compound, how does the IC50 read?
Answer: < 300 nM

Question: How did the IC50 turn out when `CC(C)n1cnnc1-c1cccc(NC(=O)c2cc(Oc3ccc(Br)cn3)ccc2F)n1` [Compound 1-337, 5-((5-Bromopyridin-2-yl)oxy)-2-fluoro-N-(6-(4-isopropyl-4H-1,2,4-triazol-3-yl)pyridin-2-yl)benzamide hydrochloride] was run?
Answer: 300 to 1000 nM

Question: Which IC50 does the source give for `O=C(Nc1ccc(F)c(C(=O)Nc2cccc(-c3nncn3C(CF)CF)n2)c1)c1ccccc1` [Compound 1-340, 5-Benzamido-N-(6-(4-(1,3-difluoropropan-2-yl)-4H-1,2,4-triazol-3-yl)pyridin-2-yl)-2-fluorobenzamide hydrochloride] here?
Answer: < 300 nM

Question: For `C[C@H](CO)n1cnnc1-c1cccc(NC(=O)c2cc(NC(=O)c3ccccc3)ccc2F)n1` [Compound 1-341, (R)-5-Benzamido-2-fluoro-N-(6-(4-(1-hydroxypropan-2-yl)-4H-1,2,4-triazol-3-yl)pyridin-2-yl)benzamide], which IC50 is on record?
Answer: < 300 nM

Question: Which IC50 does the source give for `C[C@H](CO)n1cnnc1-c1cccc(NC(=O)c2cc(Nc3ccc(F)cc3)ccc2F)n1` [Compound 1-342, (R)-2-Fluoro-5-((4-fluorophenyl)amino)-N-(6-(4-(1-hydroxypropan-2-yl)-4H-1,2,4-triazol-3-yl)pyridin-2-yl)benzamide] here?
Answer: 300 to 1000 nM

Question: `C[C@H](CO)n1cnnc1-c1cccc(NC(=O)c2cc(NCc3ccc(F)cc3)ccc2F)n1` [Compound 1-343, (R)-2-Fluoro-5-((4-fluorobenzyl)amino)-N-(6-(4-(1-hydroxypropan-2-yl)-4H-1,2,4-triazol-3-yl)pyridin-2-yl)benzamide hydrochloride] was tested. Which IC50 did it give?
Answer: < 300 nM
